Source: ChEMBL document CHEMBL6087458, “The Discovery of a Novel AXL/Triple Angiokinase Inhibitor Based on 6-Chloro-Substituted Indolinone and Side Chain Methyl Substitution Inhibiting Pancreatic Cancer Growth and Metastasis” (J Med Chem, 2025)

Experiments:
[1] = Cytotoxicity against human HUVEC cells assessed as cell viability incubated for 72 hrs by MTT assay; assay type: toxicity, cell-based
[2] = system: MDA-MB-231; test: cells; conditions: Homo sapiens, MDA-MB-231, 72 h
Description: Antiproliferative activity against human MDA-MB-231 cells assessed as cell viability incubated for 72 hrs by MTT assay

[3] = Cytotoxicity against mouse NIH/3T3 cells assessed as cell viability incubated for 72 hrs by MTT assay; assay type: toxicity, cell-based, NIH3T3
[4] = system: BXPC-3; test: cells; conditions: Homo sapiens, BXPC-3, 72 h
Description: Antiproliferative activity against human BXPC-3 cells assessed as cell viability incubated for 72 hrs by MTT assay

[5] = system: A549; test: cells; conditions: Homo sapiens, A549, 72 h
Description: Antiproliferative activity against human A549 cells assessed as cell viability incubated for 72 hrs by MTT assay

SMILES	IC50 [2]	IC50 [4]	IC50 [5]	IC50 at 72 h [1]	IC50 at 72 h [3]
COC(=O)c1ccc2c(c1)NC(=O)/C2=C(\Nc1ccc(N(C)C(=O)C(C)N2CCN(C)CC2)cc1)c1ccccc1 (racemic)	5340 nM	3740 nM	–	1430 nM	2250 nM
COC(=O)c1ccc2c(c1)NC(=O)/C2=C(\Nc1ccc(N(C)C(=O)[C@@H](C)N2CCN(C)CC2)cc1)c1ccccc1	–	–	–	1360 nM	3750 nM
COC(=O)c1ccc2c(c1)NC(=O)/C2=C(\Nc1ccc(N(C)C(=O)CN2CCOCC2)cc1)c1ccccc1	> 10000 nM	> 10000 nM	–	> 10000 nM	> 10000 nM
CC(C(=O)N(C)c1ccc(N/C(=C2\C(=O)Nc3cc(Br)ccc32)c2ccccc2)cc1)N1CCN(C)CC1 (racemic)	1440 nM	1890 nM	–	950 nM	2140 nM
COC(=O)c1ccc2c(c1)NC(=O)/C2=C(\Nc1ccc(N(C)C(=O)[C@H](C)N2CCN(C)CC2)cc1)c1ccccc1	–	–	–	1650 nM	1170 nM
CC(C(=O)N(C)c1ccc(N/C(=C2\C(=O)Nc3cc(Br)ccc32)c2ccccc2)cc1)N(C)CCN(C)C (racemic)	4540 nM	3740 nM	–	1770 nM	770 nM
CN1CCN(CC(=O)N(C)c2ccc(N/C(=C3\C(=O)Nc4cc(Cl)ccc43)c3ccccc3)cc2)CC1	4540 nM	2980 nM	–	1800 nM	3110 nM
CN(C)CCN(C)CC(=O)N(C)c1ccc(N/C(=C2\C(=O)Nc3cc(Br)ccc32)c2ccccc2)cc1	4960 nM	4220 nM	–	4710 nM	5890 nM
COC(=O)c1ccc2c(c1)NC(=O)/C2=C(\Nc1ccc(N(C)C(=O)C(C)N2CCC(N(C)C)CC2)cc1)c1ccccc1 (racemic)	5540 nM	1690 nM	–	1080 nM	1990 nM
CC(C(=O)N(C)c1ccc(N/C(=C2\C(=O)Nc3cc(Br)ccc32)c2ccccc2)cc1)N1CCSCC1 (racemic)	> 10000 nM	> 10000 nM	–	> 10000 nM	> 10000 nM
CC(C(=O)N(C)c1ccc(N/C(=C2\C(=O)Nc3cc(Cl)ccc32)c2ccccc2)cc1)N1CCC(N(C)C)CC1 (racemic)	1980 nM	2040 nM	–	830 nM	980 nM
COC(=O)c1ccc2c(c1)NC(=O)/C2=C(\Nc1ccc(N(C)C(=O)C(C)N2CCSCC2)cc1)c1ccccc1 (racemic)	> 10000 nM	> 10000 nM	–	> 10000 nM	> 10000 nM
CC(C(=O)N(C)c1ccc(N/C(=C2\C(=O)Nc3cc(Br)ccc32)c2ccccc2)cc1)N1CCC(N(C)C)CC1 (racemic)	1490 nM	1740 nM	–	1110 nM	1590 nM
CCN1CCN(C(C)C(=O)N(C)c2ccc(N/C(=C3\C(=O)Nc4cc(Br)ccc43)c3ccccc3)cc2)CC1 (racemic)	2470 nM	2440 nM	–	670 nM	1870 nM
CCN1CCN(CC(=O)N(C)c2ccc(N/C(=C3\C(=O)Nc4cc(Br)ccc43)c3ccccc3)cc2)CC1	3910 nM	3570 nM	–	1570 nM	3200 nM
CCN1CCN(CC(=O)N(C)c2ccc(N/C(=C3\C(=O)Nc4cc(Cl)ccc43)c3ccccc3)cc2)CC1	3190 nM	1780 nM	–	1850 nM	1950 nM
CC(C(=O)N(C)c1ccc(N/C(=C2\C(=O)Nc3cc(Br)ccc32)c2ccccc2)cc1)N1CCN(CCO)CC1 (racemic)	2060 nM	2310 nM	–	1980 nM	2110 nM
COC(=O)c1ccc2c(c1)NC(=O)/C2=C(\Nc1ccc(N(C)C(=O)C(C)N2CCCN(C)CC2)cc1)c1ccccc1 (racemic)	5780 nM	1660 nM	–	1810 nM	2930 nM
COC(=O)c1ccc2c(c1)NC(=O)/C2=C(\Nc1ccc(N(C)C(=O)C(C)N2CCN(CCO)CC2)cc1)c1ccccc1 (racemic)	4960 nM	2470 nM	–	1090 nM	1370 nM
CN(C(=O)CN1CCN(CCO)CC1)c1ccc(N/C(=C2\C(=O)Nc3cc(Br)ccc32)c2ccccc2)cc1	3210 nM	3570 nM	–	2490 nM	2950 nM

Now from value to molecule, other results behind:

IC50 [2]	IC50 [4]	IC50 [5]	SMILES	IC50 at 72 h [1]	IC50 at 72 h [3]
> 10000 nM	> 10000 nM	–	COC(=O)c1ccc2c(c1)NC(=O)/C2=C(\Nc1ccc(N(C)C(=O)C(C)N2CCNCC2)cc1)c1ccccc1 (racemic)	> 10000 nM	> 10000 nM
1860 nM	1950 nM	–	CC(C(=O)N(C)c1ccc(N/C(=C2\C(=O)Nc3cc(Br)ccc32)c2ccccc2)cc1)N1CCCN(C)CC1 (racemic)	2150 nM	3900 nM
1350 nM	1540 nM	–	CN(C(=O)CN1CCN(CCO)CC1)c1ccc(N/C(=C2\C(=O)Nc3cc(Cl)ccc32)c2ccccc2)cc1	1650 nM	2200 nM
> 10000 nM	> 10000 nM	–	COC(=O)c1ccc2c(c1)NC(=O)/C2=C(\Nc1ccc(N(C)C(=O)C(C)N2CCOCC2)cc1)c1ccccc1 (racemic)	> 10000 nM	> 10000 nM
> 10000 nM	> 10000 nM	–	CC(C(=O)N(C)c1ccc(N/C(=C2\C(=O)Nc3cc(Cl)ccc32)c2ccccc2)cc1)N1CCOCC1 (racemic)	> 10000 nM	> 10000 nM
–	–	1340 nM	CC(=O)O[C@H]1C(=O)[C@@]2(C)[C@H]([C@H](OC(=O)c3ccccc3)[C@]3(O)C[C@H](OC(=O)[C@H](O)[C@@H](NC(=O)c4ccccc4)c4ccccc4)C(C)=C1C3(C)C)[C@]1(OC(C)=O)CO[C@@H]1C[C@@H]2O [PACLITAXEL]	–	–
3290 nM	2150 nM	–	CN1CCCN(CC(=O)N(C)c2ccc(N/C(=C3\C(=O)Nc4cc(Br)ccc43)c3ccccc3)cc2)CC1	3190 nM	5980 nM
> 10000 nM	> 10000 nM	–	CN(C(=O)CN1CCOCC1)c1ccc(N/C(=C2\C(=O)Nc3cc(Br)ccc32)c2ccccc2)cc1	> 10000 nM	> 10000 nM
> 10000 nM	6010 nM	–	COC(=O)c1ccc2c(c1)NC(=O)/C2=C(\Nc1ccc(N(C)C(=O)CN(C)CCN(C)C)cc1)c1ccccc1	2970 nM	3570 nM
> 10000 nM	> 10000 nM	–	CC(C(=O)N(C)c1ccc(N/C(=C2\C(=O)Nc3cc(Cl)ccc32)c2ccccc2)cc1)N1CCSCC1 (racemic)	> 10000 nM	> 10000 nM
5980 nM	5780 nM	–	COC(=O)c1ccc2c(c1)NC(=O)/C2=C(\Nc1ccc(N(C)C(=O)C(C)N(C)CCN(C)C)cc1)c1ccccc1 (racemic)	2000 nM	2570 nM
5980 nM	2310 nM	–	CCN1CCN(CC(=O)N(C)c2ccc(N/C(=C3\C(=O)Nc4cc(C(=O)OC)ccc43)c3ccccc3)cc2)CC1	2720 nM	3440 nM
7830 nM	3730 nM	–	COC(=O)c1ccc2c(c1)NC(=O)/C2=C(\Nc1ccc(N(C)C(=O)CN2CCCN(C)CC2)cc1)c1ccccc1	2910 nM	3820 nM
3870 nM	3140 nM	–	CN1CCCN(CC(=O)N(C)c2ccc(N/C(=C3\C(=O)Nc4cc(Cl)ccc43)c3ccccc3)cc2)CC1	4980 nM	4520 nM
1240 nM	1890 nM	–	CC(C(=O)N(C)c1ccc(N/C(=C2\C(=O)Nc3cc(Cl)ccc32)c2ccccc2)cc1)N1CCN(C)CC1 (racemic)	840 nM	1430 nM
2970 nM	3020 nM	–	CN(C(=O)CN1CCC(N(C)C)CC1)c1ccc(N/C(=C2\C(=O)Nc3cc(Br)ccc32)c2ccccc2)cc1	1940 nM	2310 nM
6340 nM	2560 nM	–	COC(=O)c1ccc2c(c1)NC(=O)/C2=C(\Nc1ccc(N(C)C(=O)CN2CCC(N(C)C)CC2)cc1)c1ccccc1	2970 nM	3510 nM
2040 nM	1740 nM	–	CC(C(=O)N(C)c1ccc(N/C(=C2\C(=O)Nc3cc(Cl)ccc32)c2ccccc2)cc1)N1CCCN(C)CC1 (racemic)	690 nM	2200 nM
5070 nM	1640 nM	–	CCN1CCN(C(C)C(=O)N(C)c2ccc(N/C(=C3\C(=O)Nc4cc(C(=O)OC)ccc43)c3ccccc3)cc2)CC1 (racemic)	1500 nM	2100 nM
